Patent US5424185A, “Human high-affinity neurotransmitter uptake system” (Baylor College of Medicine, priority 1990, dated 1995)
Like-named read-outs stand apart in the source and are kept apart here.

Experiments:
[1] = system: aspartate/glutamate co-transport system (L-Aspl cells); experiment: D-[3H]aspartate uptake by L-Aspl cells; format: cell-based, human
Experimental: Kinetic analyses of D-[^3 H] […] Asp. […] Asp uptake.
The specificity of the high-affinity transport mechanism in L-Aspl cells also was examined. […] Asp.
The high-affinity transport system in L-Aspl cells was also analyzed in terms of its relative sensitivity to compounds specific for various subtypes of excitatory amino acid (EAA) receptors.
A series of known inhibitors of high-affinity D-Asp uptake systems (including L-cysteic acid (L-CA), L-cysteine sulfinic acid (L-CSA), aminophosphonoproprionic acid (APPA) and D-threoaspartic acid (THAA)) were also tested for their effects on D-[^3 H] Asp uptake by L-Aspl cells.

[2] = system: GABA transporter (L-GAB1 cells); experiment: [3H]GABA uptake by L-GAB1 cells; format: cell-based, human; settings: for ligand-specificity of [3H]GABA uptake by L-GAB1 cells: competitor at 100-fold excess relative to [3H]GABA; for effect of GABA uptake inhibitors on [3H]GABA uptake by L-GAB1 cells: inhibitor 1 to 100 μM
Experimental: Using concentrations of [^3 H] GABA ranging from 2 to 500 μM, the kinetic profile of GABA uptake was determined for both L-GAB1 and L-M cells. The initial velocity of GABA uptake was measured and plotted against the corresponding [^3 H] GABA concentration for both cell lines. […] The velocity profile for L-GAB1 cells was subtracted by that of L-M cells, and the resulting data used for a double-reciprocal plot of velocity-^1 against GABA concentration-^1. The velocity profile for L-M cells was also transformed into a double-reciprocal plot.
Several known inhibitors of high-affinity GABA uptake were used to examine their efficacies in inhibiting [^3 H] GABA uptake by L-GAB1 cells. […] Each of these agents was used at several concentrations ranging from 1 to 100 μM in assays of [^3 H] GABA uptake by L-GAB1 cells. […] GABA uptake by L-GAB1 cells.
L-GAB1 cells were also analyzed in terms of their ligand-specificity in the high-affinity GABA uptake mechanism.

[3] = system: neuronal and glial GABA uptake systems in the CNS; settings: neuronal and glial uptake systems, literature; read-out: IC50, high-affinity GABA uptake in the CNS; cited from earlier work
[4] = molecular target: T1, human 5HT transporter (L-S1 cells) (Homo sapiens, UniProt P31645); experiment: [3H]-5-HT uptake by L-S1 cells; format: cell-based
T1 construct: expressed in transfected cells; host or cells: mouse L-M fibroblasts (ATCC CCL 1.2) transfected with total human genomic DNA and pSV2neo; clone L-S1
Experimental: The cells were incubated at 37° C. for an additional 40 min.
L-S1 and L-M cells were preplated into 96-well culture plates. For uptake assays, the growth medium was removed from each well and the cells rinsed several times with oxygenated Ringer's buffer supplemented with 0.5 mM pargyline and 0.5 mM ascorbate. […] […] […] The cells remaining in the wells were lysed with 1% sodium dodecyl sulphate (SDS) and transferred to counting vials containing 5 ml of ACS scintillant (Amersham), for liquid scintillation spectrometry. For each assay, 6-8 parallel sets of wells were assayed simultaneously.
(§1) Non-specific activity was determined from parallel assays carried out at 0° C. Initial velocities were calculated in terms of pmol/mg protein/min by subtracting velocity values obtained at 0° C. from those obtained at 37° C.
(§2) Cells were assayed in the presence of each inhibitor for 40 minutes at 37° C., washed with Ringer's buffer and prepared for counting as previously described. Five confluent wells were assayed at each inhibitor concentration. The IC50 value for each inhibitor was determined by plotting the percent activity against the logarithm of inhibitor concentration. Measured levels of uptake in the presence of inhibitors were expressed as the percentage of maximal uptake (100 %) in the absence of inhibitor.

[5] = molecular target: T2, human 5HT transporter (L-S2 cells) (Homo sapiens, UniProt P31645); experiment: [3H]-5-HT uptake by L-S2 cells; format: cell-based
T2 construct: expressed in transfected cells; host or cells: mouse L-M fibroblasts (ATCC CCL 1.2) transfected with total human genomic DNA and pSV2neo; clone L-S2
Experimental: L-S1 and L-M cells were preplated into 96-well culture plates. For uptake assays, the growth medium was removed from each well and the cells rinsed several times with oxygenated Ringer's buffer supplemented with 0.5 mM pargyline and 0.5 mM ascorbate. […] The radioligand was added to a final concentration of 0.1 μM and incubated with the cells at 37° C. for 40 minutes. The incubation mixture was then removed and each well was washed three times at room temperature with Ringer's buffer. The cells remaining in the wells were lysed with 1% sodium dodecyl sulphate (SDS) and transferred to counting vials containing 5 ml of ACS scintillant (Amersham), for liquid scintillation spectrometry. For each assay, 6-8 parallel sets of wells were assayed simultaneously.
as §1, §2

[6] = system: human L-glutamate transporter (L-Glul cells); experiment: L-[3H]glutamate uptake by L-Glul cells; format: cell-based; settings: unlabelled neurotransmitters, EAA receptor ligands, co-transporter inhibitors
Experimental: Both L-Glul and L-M cells were assessed for their kinetic properties of [^3 H] Glu uptake, and the results were analyzed by fitting to Michaelis-Menten kinetics. This was done by incubating cells with differing concentrations of [^3 H] Glu (ranging from 0.05 to 2 μM) for 10 minutes, at both 37° C. and 0° C. The amount of [^3 H] Glu retained by the cells following incubation was then quantitated and converted (using the manufacturer's specific activity for [^3 H] Glu to the corresponding picomole-equivalent of the radioligand, for each concentration of radioligand at each temperature. Then, the pmol value is normalized by the length of incubation and the amount of protein corresponding to the number of cells assayed. The resulting value, expressed in units of pmol/min/mg protein, is the initial velocity value for each concentration of [^3 H] Glu at each temperature. The initial velocity measured at 37° C. represents total initial velocity; the initial velocity measured at 0° C. represents nonspecific initial velocity. The difference between these two velocity values is then the specific initial velocity, denoted by "V", for each concentration of [^3 H] Glu.
Various drugs specific for excitatory amino acid (EAA) receptor subtypes were assessed for their effects on [^3 H] Glu uptake by L-Glul cells.
Glu uptake by L-Glul cells.

Rat Synaptosomes = settings: literature values; read-out: Representative IC50, Rat Synaptosomes; cited from earlier work
[7] = ligand 10 μM, 10 min preincubation, 0.1 μM [3H]-5HT, 40 min, 37° C. (FIG. 1)

T2 sequence (P31645 whole entry): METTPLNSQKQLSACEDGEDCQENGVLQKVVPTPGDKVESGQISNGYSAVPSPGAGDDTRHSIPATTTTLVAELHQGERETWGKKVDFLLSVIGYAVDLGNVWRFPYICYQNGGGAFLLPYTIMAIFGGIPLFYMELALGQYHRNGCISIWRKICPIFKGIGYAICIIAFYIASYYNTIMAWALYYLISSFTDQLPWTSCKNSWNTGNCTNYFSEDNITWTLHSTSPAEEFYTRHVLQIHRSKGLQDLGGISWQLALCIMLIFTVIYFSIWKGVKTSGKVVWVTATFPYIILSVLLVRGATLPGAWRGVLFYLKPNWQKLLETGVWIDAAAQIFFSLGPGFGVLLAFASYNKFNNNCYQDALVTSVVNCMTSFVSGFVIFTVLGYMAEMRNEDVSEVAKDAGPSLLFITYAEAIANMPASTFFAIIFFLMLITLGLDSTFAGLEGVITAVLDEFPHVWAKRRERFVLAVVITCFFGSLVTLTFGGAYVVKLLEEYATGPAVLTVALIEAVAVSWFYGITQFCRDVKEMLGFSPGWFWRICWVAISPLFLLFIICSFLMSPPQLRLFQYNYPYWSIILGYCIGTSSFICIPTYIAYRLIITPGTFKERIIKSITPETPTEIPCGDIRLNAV
T1 sequence (P31645 whole entry): as above

CCOC(=O)CC[C@H](N)C(=O)OCC [DEEG, glutamate diethylester]
effect on D-[3H]Asp uptake by L-Aspl cells [1]: without effect

O=C(O)[C@@H]1CCCN1 [proline]
ligand-specificity of [3H]GABA uptake by L-GAB1 cells [2]: not sensitive

O=C(O)C1=CCCNC1 [Guvacine]
IC50 [3]: 10 to 200 µM | effect of GABA uptake inhibitors on [3H]GABA uptake by L-GAB1 cells [2]: without measurable effect

N[C@@H](CS(=O)(=O)O)C(=O)O [L-CA, L-cysteic acid]
effect on D-[3H]Asp uptake by L-Aspl cells [1]: potent inhibitory effects

C[C@H](N)C(=O)O [L-alanine]
ligand-specificity of [3H]GABA uptake by L-GAB1 cells [2]: somewhat sensitive

N[C@@H](CS)C(=O)O [L-cysteine]
effect on D-[3H]Asp uptake by L-Aspl cells [1]: slight and not statistically significant

NC(CP(=O)(O)O)C(=O)O (stereo not shown) [APPA, aminophosphonoproprionic acid]
effect on D-[3H]Asp uptake by L-Aspl cells [1]: moderate in inhibitory potency

O=C(O)C1CCCNC1 (racemic) [NA, (±)nipecotic acid]
IC50 [3]: 10 to 200 µM | inhibition of total [3H]GABA uptake by L-GAB1 cells ([2]; effect saturating by 100 μM): less than 20% | effect of GABA uptake inhibitors on [3H]GABA uptake by L-GAB1 cells [2]: some effect

N[C@@H](Cc1ccccc1)C(=O)O [phenylalanine]
effect of competing ligand on [3H]-5HT uptake, L-S1 [4, 7]: nor the amino acid substrates for catecholamine synthesis, phenylalanine and tyrosine, inhibited uptake of 5-HT | effect of competing ligand on [3H]-5HT uptake, L-S2 [5, 7]: nor the amino acid substrates for catecholamine synthesis, phenylalanine and tyrosine, inhibited uptake of 5-HT | ligand-specificity of [3H]GABA uptake by L-GAB1 cells [2]: not sensitive

C=C(C)[C@H]1CN[C@H](C(=O)O)[C@H]1CC(=O)O [kainic acid]
effect on [3H]Glu uptake by L-Glul cells [6]: without effect | effect on D-[3H]Asp uptake by L-Aspl cells [1]: significant inhibition

N[C@H](C(=O)O)c1cc(=O)[nH]o1 [ibotenic acid]
effect on [3H]Glu uptake by L-Glul cells [6]: without effect

N[C@@H](C(=O)O)[C@@H](O)C(=O)O [THAA, D-threoaspartic acid]
effect on D-[3H]Asp uptake by L-Aspl cells [1]: potent inhibitory effects

NCCS(=O)(=O)O [taurine]
effect on [3H]Glu uptake by L-Glul cells [6]: only unlabelled L-glutamate seems to mediate some inhibition | effect on D-[3H]Asp uptake by L-Aspl cells [1]: slight and not statistically significant

N=C(N)NCCC[C@H](N)C(=O)O [L-arginine]
ligand-specificity of [3H]GABA uptake by L-GAB1 cells [2]: somewhat sensitive

N[C@@H](CS(=O)(=O)O)C(=O)O [cysteic acid]
effect on [3H]Glu uptake by L-Glul cells [6]: only unlabelled L-glutamate seems to mediate some inhibition

dihydroxykainate
effect on D-[3H]Asp uptake by L-Aspl cells [1]: significant inhibition

CNC[C@H](O)c1ccc(O)c(O)c1 [epinephrine]
ligand-specificity of [3H]GABA uptake by L-GAB1 cells [2]: not inhibited

NC(CCCC(=O)O)C(=O)O (stereo not shown) [AAA, a-aminoadipic acid]
effect on D-[3H]Asp uptake by L-Aspl cells [1]: virtually without inhibitory effect

NC(CCCP(=O)(O)O)C(=O)O (stereo not shown) [APV, 2-amino-5-phosphonovaleric acid]
effect on [3H]Glu uptake by L-Glul cells [6]: without effect

NC(CCP(=O)(O)O)C(=O)O (stereo not shown) [AP4, 2-amino-4-phosphonobutyric acid]
effect on [3H]Glu uptake by L-Glul cells [6]: without effect

N[C@H](CCS(=O)(=O)O)C(=O)O [D-homocysteic acid]
effect on [3H]Glu uptake by L-Glul cells [6]: without effect

N[C@@H](Cn1oc(=O)[nH]c1=O)C(=O)O [quisqualate]
effect on [3H]Glu uptake by L-Glul cells [6]: potent inhibitor | effect on D-[3H]Asp uptake by L-Aspl cells [1]: without effect

NCCCC[C@H](N)C(=O)O [lysine]
ligand-specificity of [3H]GABA uptake by L-GAB1 cells [2]: not sensitive

NC(=O)CC[C@H](N)C(=O)O [L-glutamine]
effect on D-[3H]Asp uptake by L-Aspl cells [1]: slight and not statistically significant

COc1ccc2[nH]cc(CCNC(C)=O)c2c1 [N-Acetyl-5-methoxytryptamine, N-acetyl-5-methoxytryptamine]
IC50 (Rat Synaptosomes): 66 µM

NC(CS(=O)O)C(=O)O (stereo not shown) [cysteine sulfinate]
effect on [3H]Glu uptake by L-Glul cells [6]: no effect

N[C@@H](CCS(=O)(=O)O)C(=O)O [LHCA, L-homocysteic acid]
effect on D-[3H]Asp uptake by L-Aspl cells [1]: without effect

NCCc1ccc(O)c(O)c1 [dopamine]
effect on [3H]Glu uptake by L-Glul cells [6]: only unlabelled L-glutamate seems to mediate some inhibition

N[C@@H](CO)C(=O)O [serine]
ligand-specificity of [3H]GABA uptake by L-GAB1 cells [2]: not sensitive

NC[C@H](O)c1ccc(O)c(O)c1 [Norepinephrine, norepinephrine]
effect on [3H]Glu uptake by L-Glul cells [6]: only unlabelled L-glutamate seems to mediate some inhibition | ligand-specificity of [3H]GABA uptake by L-GAB1 cells [2]: not inhibited | IC50 (Rat Synaptosomes): > 10 µM

CN[C@H](CC(=O)O)C(=O)O [NMDA, N-methyl-D-aspartic acid]
effect on [3H]Glu uptake by L-Glul cells [6]: without effect | effect on D-[3H]Asp uptake by L-Aspl cells [1]: without effect

Cc1onc(O)c1CC(N)C(=O)O [AHMIP, D-amino-3-hydroxy-5-methyl-4-isoxazoneproprionic acid]
effect on [3H]Glu uptake by L-Glul cells [6]: no inhibitory effect

N[C@@H](Cc1ccc(O)cc1)C(=O)O [tyrosine]
effect of competing ligand on [3H]-5HT uptake, L-S1 [4]: nor the amino acid substrates for catecholamine synthesis, phenylalanine and tyrosine, inhibited uptake of 5-HT | effect of competing ligand on [3H]-5HT uptake, L-S2 [5]: nor the amino acid substrates for catecholamine synthesis, phenylalanine and tyrosine, inhibited uptake of 5-HT | ligand-specificity of [3H]GABA uptake by L-GAB1 cells [2]: not sensitive

COc1ccc2[nH]cc(CCN)c2c1 [5-methoxytryptamine]
IC50 [4]: 3.5 µM | IC50 [5]: 1.5 µM | IC50 (Rat Synaptosomes): 25 µM

N[C@@H](CS(=O)O)C(=O)O [L-CSA, L-cysteine sulfinic acid]
effect on D-[3H]Asp uptake by L-Aspl cells [1]: potent inhibitory effects

N[C@H](CCC(=O)NCS(=O)(=O)O)C(=O)O [GAMS]
effect on [3H]Glu uptake by L-Glul cells [6]: without effect

N[C@@H](Cc1c[nH]c2ccccc12)C(=O)O [tryptophan]
effect of competing ligand on [3H]-5HT uptake, L-S1 [4, 7]: Neither tryptophan, the amino acid precursor of serotonin, nor the amino acid substrates for catecholamine synthesis, phenylalanine and tyrosine, inhibited uptake of 5-HT | effect of competing ligand on [3H]-5HT uptake, L-S2 [5, 7]: Neither tryptophan, the amino acid precursor of serotonin, nor the amino acid substrates for catecholamine synthesis, phenylalanine and tyrosine, inhibited uptake of 5-HT | ligand-specificity of [3H]GABA uptake by L-GAB1 cells [2]: not sensitive

methyl-glutamylphosphonic acid [MGPA]
effect on [3H]Glu uptake by L-Glul cells [6]: without effect
